Source: publication PMC7238232, “Acamprosate Is a Substrate of the Human Organic Anion Transporter (OAT) 1 without OAT3 Inhibitory Properties: Implications for Renal Acamprosate Secretion and Drug–Drug Interactions” (Pharmaceutics, 2020)
Read-outs that look alike come from different tables or passages of the source.

What was measured:
ASBT = settings: Caco-2 cells, preliminary data; cited from earlier work
OAT3 = biological target: T1, OAT3 (Homo sapiens, UniProt Q8TCC7); experiment: Acamprosate intracellular uptake in HEK293-Flp-In OAT3 cells (LC/MS-MS); format: cell-based; settings: 200 µM acamprosate; 10 min; Lab. 1
T1 sequence (Q8TCC7 1-542): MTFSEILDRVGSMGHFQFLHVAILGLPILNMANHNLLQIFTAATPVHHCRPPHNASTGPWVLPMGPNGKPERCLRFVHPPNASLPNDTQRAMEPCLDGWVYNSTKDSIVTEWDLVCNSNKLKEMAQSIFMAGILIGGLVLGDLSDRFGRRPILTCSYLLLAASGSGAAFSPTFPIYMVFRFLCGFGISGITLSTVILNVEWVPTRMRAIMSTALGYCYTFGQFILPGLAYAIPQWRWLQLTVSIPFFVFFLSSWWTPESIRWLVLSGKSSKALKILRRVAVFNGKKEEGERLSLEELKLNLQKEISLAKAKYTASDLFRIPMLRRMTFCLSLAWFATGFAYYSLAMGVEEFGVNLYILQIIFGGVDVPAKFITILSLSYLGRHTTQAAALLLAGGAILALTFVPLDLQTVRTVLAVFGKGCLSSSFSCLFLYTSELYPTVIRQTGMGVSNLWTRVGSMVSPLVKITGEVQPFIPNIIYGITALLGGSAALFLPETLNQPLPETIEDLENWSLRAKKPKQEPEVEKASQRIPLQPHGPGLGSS
Description: The experiments were done on cells cultured in 24-well plates in Lab. 1. For the time-dependent uptake, the experiment was initiated by replacing the incubation buffer with 200 µL prewarmed 200 µM solution of acamprosate in uptake buffer. The plates were incubated in an orbital plate shaker at 37 °C and 100 rpm for 5, 15, 30, 45, 60, or 90 min and experiments were stopped by washing with 3 × 500 µL ice-cold buffer. […] The plates were incubated in an orbital plate shaker (Incubating microplate shaker from VWR International AB, Stockholm, Sweden) at 37 °C and 100 rpm for 10 min (time point at which substrate uptake was within the linear range) and experiments were stopped by washing with 3 × 500 µL∙well^−1 ice-cold buffer. The cells were then lysed with 200 µL 50 nM warfarin in 60:40 acetonitrile (ACN):water (IS solution) and mixed thoroughly. The samples were moved to 96-well LC/MS-MS plates. The wells from the uptake experiment were rinsed again with 200 µL IS solution and the resulting volumes were added to the corresponding well on the same 96-well plate. […] The plates were covered with aluminum seals and centrifuged at 3500 rpm and 5 °C for 20 min and the amount of acamprosate in the supernatant was quantified by LC/MS-MS.
Acamprosate was quantified in Lab. […] Quantification was done by multiple reaction monitoring of parent and daughter ions. […]

[1] = cited from earlier work

## CC(=O)NCCCS(=O)(=O)O [acamprosate, acetylhomotaurinate]
ASBT
  inhibition of substrate transport via ASBT: did not inhibit
OAT3
  acamprosate uptake in OAT3 expressing cells compared to mock cells: similar
[1]; acamprosate, IV bolus, 333 mg
  Cmax: 153 ± 38 µM
[1]; acamprosate, IV bolus, 666 mg
  Cmax: 214 ± 10 µM
[1]; acamprosate, IV bolus, 710 mg
  Cmax: 230 ± 64 µM
[1]; acamprosate, IV bolus, 1420 mg
  Cmax: 486 ± 106 µM
[1]; acamprosate, IV bolus, 2130 mg
  Cmax: 768 ± 149 µM
[1]; acamprosate, all doses and routes of Table A1
  fu, fraction unbound in plasma: 1 [5]
[1]; acamprosate, oral solution, 333 mg
  Cmax: 1.8 ± 0.8 µM
[1]; acamprosate, oral solution, 666 mg
  Cmax: 4.3 ± 1.4 µM
[1]; acamprosate, oral solution, 1332 mg
  Cmax: 5 ± 1.7 µM
[1]; acamprosate, oral solution, 2664 mg
  Cmax: 8.6 ± 4.1 µM
[1]; acamprosate, oral tablet, 666 mg
  Cmax: 1.4 ± 1.1 µM
[1]; acamprosate, oral tablet, 1332 mg
  Cmax: 1.5 ± 0.1 µM
[1]; administered orally, humans
  plasma levels: 1 to 9 µM
[1]
  metabolism in humans: not metabolized
  share of the eliminated dose accounted for by renal clearance (CLR): > 95%
[1]; healthy adults
  renal clearance (CLR) of unbound acamprosate: 13.4 to 23.4 L/h
[1]; humans
  fu (plasma protein binding): 1
[1]; intravenous (bolus), doses of 333–2130 mg
  initial unbound plasma concentration (C0,u): 154 to 768 µM
[1]; oral, doses of 333–2130 mg
  unbound steady-state plasma concentration (Cmax,u): 2 to 5 µM
